The test system of one test is OSCs. The method, then: To assay whether the gonadal somatic cells (such as the ovarian somatic cells—OSCs) generated from pluripotent stem cells are functional, expression of CYP19A1 was assayed by qPCR, and steroidogenesis was measured by ELISA for estradiol.
A first intermediate cell population expressing markers representative of mesoderm, and a second intermediate cell population expressing markers representative of intermediate mesoderm, and the OSCs were generated according to the protocols described in Example 6.

In test [1] the test system is second intermediate cell population (LHX1, PAX2, WT1, RUNX1). The test is described as follows: Intermediate mesoderm marker expression in second intermediate cell population. It is filed as cell-based, human. The settings on record: increasing concentration; for expression of intermediate mesoderm markers WT1 and RUNX1: CHIR 0.5, 1 or 2 μM, RA or TTNPB 0, 0.1, 0.5 or 1 μM. The protocol: The cell suspension was centrifuged at 1200 RPM for 5 min and the supernatant was discarded. The centrifuged cells were resuspended in 1 ml of GK2 medium and the cells were counted. […] The plates were cultured for 24 hours, and then 80% of the media was replaced with fresh IM-induction media without the ROCK inhibitor. 80% of the media was again replaced every other day until the cells became confluent (about 5-6 days). Once the cells were confluent, the cells were passaged to fresh fibronectin-coated 24-well plates, with at least 50,000 cells per well after passage (25k/cm^2).

Test [2] concerns ovarian somatic cells (OSCs). The experiment in a line: OSC induction with different FGF family members, marker expression. The format is cell-based, human. Particulars: 10 ng/mL FGF in granulosa double medium. The protocol: Fibroblast growth factors (FGFs) are a large family of proteins that are important for signaling events in a wide variety of processes. […] Briefly, gonadal cells were induced in granulosa doublemedium comprising different FGFs, and the expression of bipotential gonadal markers as well as that of granulosa markers were measured in the resulting cells.
The replated cells from the second intermediate population were incubated in the granulosa double medium (also referred to as gonadal induction medium or OSC induction medium) according to Table 18, with the same concentration of either FGF2, 9, 10, 16, 17, 18 or 19. The expression of bipotential gonadal markers (WT1, LHX9, GADD45G and GATA4) as well as granulosa markers (FOXL2, NR1H4 and KITLG) were measured in the resulting cells.

The test system of test [3] is second intermediate cell population. The test is described as follows: Induction of second intermediate (IM) cell population: survival and morphology, phase contrast. The format is cell-based, human. Particulars: 5 days in IM-induction media, increasing concentration. The method, then:
The cell suspension was centrifuged at 1200 RPM for 5 min and the supernatant was discarded. The centrifuged cells were resuspended in 1 ml of GK2 medium and the cells were counted. About 720,000 cells (from 24 well plate: 30,000 cells per well) were added to 12 mL IM-induction medium (as prepared in Table 10, but without the ROCK inhibitor). 12 μL ROCK inhibitor Y-27632 (1000×) or 36 μL of CET (3:1000) (final concentration of CET in media: 50 nM Chroman1, 5 μM Emricasan, 0.7 μM Trans-ISRIB) was added to obtain 60,000 cells/mL. 500 μL of the solution was placed in each well of fibronectin coated 24-well plate (about 30,000 cells/well). The plates were cultured for 24 hours, and then 80% of the media was replaced with fresh IM-induction media without the ROCK inhibitor. 80% of the media was again replaced every other day until the cells became confluent (about 5-6 days). Once the cells were confluent, the cells were passaged to fresh fibronectin-coated 24-well plates, with at least 50,000 cells per well after passage (25k/cm^2). About 4-5 million second intermediate cells were produced per 24 well plate. […]

Test [4] deals with ovarian somatic cells (OSCs). The experiment in a line: RA concentration and exposure gradient during OSC induction, FOXL2 and KRT19 staining. Particulars: 10-step gradient 0 μM to 10 μM.
Test [5] has as its system ovarian somatic cells (OSCs). The experiment in a line: Concentration titration of BMP4, follistatin and FGF2 in OSC induction, qPCR for GATA4 and FOXL2. It is filed as cell-based, human. Particulars: BMP4 20 ng/mL, follistatin removed. The protocol: Various concentration titrations of BMP4, Follistatin and FGF were tested in OSC induction, and the resulting cells were examined for expression of bipotential gonadal markers as well as that of granulosa markers.
The OSCs were induced based on the protocols described in Example 6, but with various concentrations of BMP4. Follistatin and FGF tested.
The OSC induction conditions were first tested by varying the BMP4 concentration. […] The gene expression of resulting cells was tested by qPCR for bi-potential gonadal cell markers (GATA4) as well as for granulosa cell markers (FOXL2) (FIGS. 12A and 12B respectively). Expression of GATA4 increased with higher BMP4 concentration, and FOXL2 expression appeared to peak at 10 ng/ml of BMP4 under the conditions tested.
Four different concentrations of follistatin were then tested in OSC induction, with the concentration of BMP4 kept constant at 20 ng/ml as previously described. The gene expression of resulting cells was tested by qPCR for bi-potential gonadal cell markers (GATA4) as well as for granulosa cell markers (FOXL2) (FIGS. 12C and 12D respectively). […] The generation of mature OSCs were also examined by FOXL2 expression. […] In subsequent experiments, OSC induction in the absence or at lower concentrations of follistatin was further explored. […]
For orientation: Quantitative PCR measures a nucleic acid by following its amplification.

Consider `C[C@]12CCC(=O)C[C@@H]1CC[C@@H]1[C@@H]2CC[C@]2(C)[C@@H](O)CC[C@@H]12` [dHT, dihydroxy-testosterone], for which the “estradiol levels in the media, 48 hrs compared to 24-hr incubation” value in the test with OSCs (50 ng/ml, 48 hrs) is “further increase”. Also, in the test on OSCs (24-hr incubation, higher concentration), the “estradiol levels in the media” value is “increased”. For `Cc1c[nH]c(-c2cnc(NCCNc3ccc(C#N)cn3)nc2-c2ccc(Cl)cc2Cl)n1` [CHIR, CHIR99021], the “expression of intermediate mesoderm markers WT1 and RUNX1” value in test [1] is on record as “increased expression”. The “expression of intermediate mesoderm markers LHX1 and PAX2” value in test [1] (CHIR 1, 2 or 3 μM, RA 50 nM, 100 nM, 500 nM or 1 μM) was “increased expression”. As for “FGF16: fibroblast growth factor family member”, in test [2], the “expression of bipotential gonadal markers (WT1, LHX9, GADD45G, GATA4) compared to FGF2” value is reported as “comparable or higher” and the “expression of granulosa markers (FOXL2, NR1H4, KITLG) compared to corresponding medium” value is “comparable”.

For the molecule `C/C(=C\c1ccc(C(=O)O)cc1)c1ccc2c(c1)C(C)(C)CCC2(C)C` [TTNPB], the “cell survival and cellular morphology of second intermediate cell population” value in test [3] is “increased cell survival and uniform cellular morphology”. Also, in test [1], the “expression of intermediate mesoderm markers WT1 and RUNX1” value was “increasing expression”.

In the case of `CC1=C(/C=C/C(C)=C/C=C/C(C)=C/C(=O)O)C(C)(C)CCC1` [RA, retinoic acid], the “RA concentration at which KRT19 staining peaked” value in test [4] is recorded as “around 500 nM”. For the molecule FGF2, the “FGF2 concentration at which GATA4 and FOXL2 expression reach saturation” value in test [5] came to 20 ng/mL. For “FGF19: fibroblast growth factor family member”, in test [2], the “expression of bipotential gonadal markers (WT1, LHX9, GADD45G, GATA4) compared to FGF2” value is “comparable or higher” and the “expression of granulosa markers (FOXL2, NR1H4, KITLG) compared to corresponding medium” value is recorded as “comparable”.
